Publication PMC10704437, “Sterol-activated amyloid beta fibril formation” (The Journal of Biological Chemistry, 2023)
pKd: −log10 of the molar value.

Assays:
[1] = target: T1, Aβ42 monomer (Homo sapiens, UniProt P05067); assay: Sterol binding to Aβ42, equilibrium DHE fluorescence titrations; details: direct Aβ42 titration of DHE fluorescence; single-binding-site fit; K2PO4 50 mM, pH 7.4, 25 °C; read-out: Kd
T1 construct: Small red spheres mark the Aβ42 peptide C-terminal residue, A42; purchased Sigma-Aldrich Corp
Method: CH ([27]) and CS ([28]) increase the rate of Aβ aggregation and CH is thought to stabilize fibrils ([29]); yet, the affinities of CH and its metabolites for the Aβ peptide monomer have not been determined. Here, CH and CS affinities for the Aβ42 monomer are established using dehydroergosterol (DHE)—a fluorescent CH analog ([30]) used as a competitive probe to determine CH and CS affinities. Aβ42 monomers were prepared as previously described ([31]) (see Methods). […] Under this condition, Aβ42 essentially quantitatively binds DHE until its concentration exceeds that of DHE, which results in a breakpoint in the titration curve that yields the stoichiometry. The arrow seen descending from the breakpoint indicates a stoichiometry of 1:1, which agrees well with the ∼1:1 CH-metabolite:Aβ stoichiometry estimated from analysis of senile plaques micro-dissected from AD-patient brain tissue ([15]).
Figure 1 Sterol binding to Aβ42at equilibrium.A, DHE affinity for monomeric Aβ4_2. […] Binding was detected via the binding-induced 4.4 (±0.2)-fold increase in DHE fluorescence (λex = 325 nm, λem= 375 nm). Fluorescence intensity, I, is plotted relative to the intensity at zero titrant, I0. Titrations were performed independently in triplicate and the line passing through the data is the least-squares fit to a single-binding-site model. B, Aβ42:DHE stoichiometry. […] C. DHE fluorescence (λex = 325 nm, λem = 375 nm) is plotted versus [Aβ42]/[DHE]. The line descending from the titration breakpoint indicates a stoichiometry of 1:1. C and D, CH and CS affinities. Affinities were determined by competitive binding versus DHE. […] C, was titrated with CH (5.0–500 nM, 0.05–5 × Kd) or CS (5.0–500 nM, 0.15–[…] × Kd). Binding was monitored via the decrease in DHE fluorescence (λex = 325, λem = 375) caused by DHE displacement from Aβ42. Controls ensured that <2.0% of Aβ42 oligomerized during the measurement. Titrations were performed in triplicate and averaged. The solid lines through the data represent least-squares fits to a competitive single-binding-site model. C and D, insets highlight the behavior of the titration over ligand concentrations that span their reported CMCs (indicated by arrows). […]
DHE/Aβ42 binding interactions were monitored via the binding-induced 4.4-fold change in DHE fluorescence (λex = 325 nm, λem= 375 nm). […]
The affinities of CH and CS for Aβ42 were determined in competitive binding studies versus DHE. Binding was detected via the fluorescence decrease (λex= 325 nm, λem = 375 nm) caused by DHE displacement. […] Imax = (fraction DHE-bound to peptide at zero competitive ligands)/4.4 — the fold fluorescence change associated with DHE dissociation, see Figure 1A.

[2] = target: T2, Aβ42 (Homo sapiens, UniProt P05067); assay: Sterol binding to Aβ42, pre-steady-state stopped-flow fluorescence
T2 construct: Small red spheres mark the Aβ42 peptide C-terminal residue, A42; purchased Sigma-Aldrich Corp
Method: To establish the rates at which Aβ42•ligand complexes form and dissociate, the rate constants governing the binding reactions were determined. DHE binding was monitored in real time using a stopped-flow fluorimeter via binding-induced changes in DHE fluorescence. The reactions are pseudo first order in [ligand] and kobs was obtained by least-squares fitting progress curves to a single-exponential equation ([44], [45]). kobs values were determined (in triplicate) at a series of Aβ42 concentrations and the averaged values are plotted versus [Aβ42] in Figure 2B. kon and koff are given by the slope and intercept of the kobs-versus-[Aβ42] plot obtained by linear least-square fitting ([44], [45]). […] The rate constants are compiled in Table 1.
Figure 2 Sterol binding to Aβ42—pre-steady state studies.A, DHE binding. Reactions were monitored via binding induced changes in DHE fluorescence using a stopped-flow fluorimeter (λex = 325, λem > 400 nm). Fluorescence intensity, I, is reported relative to the intensity in the absence of ligand, Io. […] C was rapidly mixed (1:1, v/v) with a solution identical except that Aβ42 was replaced by DHE (40 nM, 2.7 × Kd). The bindingreaction curve shown is the average of five independent progress curves. The averaged curve was a least-squares fit to a single-exponential equation and the resulting best fit (indicated by the red line) yielded kobs. B, DHE kon and koff. kobs values obtained as in Panel A were determined in triplicate at varying Aβ42 concentrations and the averaged values are shown plotted versus [Aβ42]. kon and koff are given by the slope and intercept of a linear least-squares fit of the kobsversus [Aβ42] plot. C and D, CH and CS displacement reactions.
Pre-steady-state binding of sterols to Aβ42 was monitored via the binding-induced change in DHE fluorescence (λex = 325, λem > 400 nm) using an Applied Photophysics SX20 stopped-flow fluorimeter.
Three progress curves (each an average of five independently obtained curves) were collected at five separate Aꞵ42 concentrations. The observed rate constant (kobs) at a given [Aβ42] was obtained by fitting the average of the three curves to a single-exponential equation using Pro-K software ([75]). kon and koff were obtained from the slopes and intercepts predicted by linear least-squares analysis of kobs versus [Aβ42] plots.
C. […] Progress curves were determined in triplicate and koff was obtained by least-squares fitting the averaged curves to a single-exponential equation using Pro-K.

T2 sequence (P05067 672-713 limits assumed): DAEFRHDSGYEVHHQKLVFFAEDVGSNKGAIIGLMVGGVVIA
T1 sequence (P05067 672-713 limits assumed): as above

## CC(C)[C@@H](C)/C=C/[C@@H](C)[C@H]1CC[C@H]2C3=CC=C4C[C@@H](O)CC[C@]4(C)C3=CC[C@]12C [DHE, dehydroergosterol, reference compound]
[1]
  pKd: 7.80
[2]; intercept of kobs versus [Aβ42] plot, stopped-flow, pH 7.4, 25 °C
  koff: 1 s⁻¹
[2]; ratio of rate constants, read-out: koff/kon
  pKd: 7.77
[2]; slope of kobs versus [Aβ42] plot, stopped-flow, pH 7.4, 25 °C
  kon: 6e+07 M⁻¹ s⁻¹
